{"source": "patent US20090054403A1", "about": "“Treatment of Post-Traumatic Stress Disorder” (priority 2007, published 2009)", "key": {"[1]": {"system": "cardiovascular parameters", "test": "Cardiovascular effects of acute intravenous dosing in normal anesthetized dogs", "type": "in vivo", "settings": "1-10 mg/kg i.v., up to five hours"}, "[2]": {"test": "Pharmacokinetics after single oral dose in rats (plasma and brain)", "type": "in vivo, rats (Crl: CD BR Vaf+)", "settings": "for half-life: Crl: CD BR Vaf+, rat, plasma, read-out: elimination half-life (converted)", "description": "Male rats (Crl: CD BR Vaf+) weighing 180-220 g were fasted overnight before dosing and until 4 hr after dosing. Doses were formulated in water containing 2% 1-hydroxypropyl methylcellulose (50 centipoises viscosity), 1% benzyl alcohol, and 0.6% Tween 80 (all obtained from Sigma Chemical Company). Concentration of drug in the dose solutions was 5, 15, and 50 mg/ml for the 10, 30, and 100 mg/kg doses, respectively, and was verified by liquid chromatography (LC). The 5 mg/ml dose was a clear solution and the higher concentrations were a translucent suspension. Dose volumes were 2.0 ml/kg. At various times after dosing, samples of blood were obtained by cardiac puncture with heparinized syringes, and plasma was prepared by centrifugation. Brains of rats were surgically excised, and all samples were frozen at −20° C. until analysis.\nAliquots of plasma (0.05 or 0.5 ml) were mixed with internal standard (50 μl of methanol containing 5 μg/ml a monofluoro analog of nepicastat, and 5 mg/ml dithiothreitol). Samples were mixed with 200 mM sodium phosphate buffer, pH 7.0, (0.5 ml) and extracted with 3 ml of ethyl acetate/hexane (1/1, v/v). The organic phase containing analytes was back extracted with 250 μl of 250 mM acetic acid and 100 μl aliquots of the aqueous phase were assayed by LC. The LC system used a Keystone Hypersil BDS 15 cm C8 column at ambient temperature. Mobile phase A was 12.5 mM potassium phosphate, pH 3.0, with 5 mM dodecanesulfonic acid and mobile phase B was acetonitrile. Solvent composition was 40% B and was pumped at a flow rate of 1 ml/min. Detection was by UV absorption at 261 nm. Concentrations of analytes were determined from a standard curve generated from the analysis of plasma from untreated rats fortified with known concentrations of analyte. Plasma concentration data are expressed as μg (free base) per ml.\nBrains were rinsed briefly with saline, blotted on a paper towel, then weighed (1.5-2.0 g). Internal standard was added (50 μl of methanol containing 20 μg/ml a monofluoro analog of nepicastat), and brains were homogenized in 5 ml of 200 mM sodium phosphate, pH 7.0, containing 0.5 mg/ml dithiothreitol. Aliquots of homogenate (2 ml) were extracted with 10 ml of ethyl acetate/hexane (1/1, v/v). The organic phase was gently back extracted with 150 μl of 250 mM acetic acid.\nFollowing addition of 100 μl of methanol to the aqueous phase (to disperse any emulsion), 100 μl aliquots were assayed by LC as described for plasma. Level in brain are expressed as μg (free base) per g of brain tissue.\nPharmacokinetic parameters were calculated from mean plasma concentrations. Plasma half-life (T1/2) was calculated as 0.693/β, where β is the elimination rate constant determined by linear regression of the log plasma concentration vs. time data within the terminal linear portion of the data. Areas under the plasma concentration vs. time curve (AUC) from zero to the time of the last quantifiable plasma concentrations were calculated by the trapezoidal rule. AUC from zero to infinity (AUCtotal) was calculated as:\nAUCtotal=AUC(0−Clast)+Clastβ where Clast is the last quantifiable plasma concentration."}, "[3]": {"system": "mean arterial pressure and heart rate", "test": "Heart rate and mean arterial pressure in restrained SHR with SCH-23390 pretreatment", "type": "in vivo, spontaneous hypertensive rats", "text": "Male, spontaneous hypertensive rats (280-345 g; Charles River Labs, Kingston, N.Y.) were fasted overnight then anesthetized with ether. A femoral artery and femoral vein were cannulated with PE50 tubing for recording of blood pressure and administration of compounds, respectively. Animals were then placed in MAYO restrainers and their feet loosely taped to the restrainer. Heparinized saline (50 units sodium heparin/ml) was used to maintain patency of each cannula throughout the experiment. The following parameters were continuously recorded using Modular Instruments MI^2 BioReport™ software installed on an IBM personal computer: mean arterial pressure (MAP), heart rate (HR), and the change from baseline for each parameter at specified time points in the experiment.\nAll compounds were dissolved on the day of use. nepicastat was dissolved in deionized water (vehicle) to a free base concentration of 1 mg/ml. Oral dosing volume for nepicastat or vehicle was 10 ml/kg. SCH-23390 was dissolved in saline (vehicle) to a free base concentration of 0.2 mg/ml. […] or saline were administered intravenously as a bolus in a volume of 1.0 ml/kg followed by 0.2 ml flush of isotonic saline.\nFollowing surgical preparation, each animal was allowed a minimum one hour recovery period. Animals were randomly assigned to four treatment groups: vehicle (iv)/vehicle (po); vehicle (iv)/nepicastat (po); SCH-23390 (iv)/vehicle (po); or SCH-23390 (iv)/nepicastat (po). Once animals were stabilized (minimum one hour), baseline blood pressure and heart rate was determined by taking an average of each parameter over a 15 min period of time. Once baseline blood pressure and heart rate were established, animals were dosed intravenously with either SCH-23390 (200 μg/kg) or vehicle (saline, 1 ml/kg). Fifteen minutes later, animals were orally dosed with either nepicastat (10 mg/kg) or vehicle (deionized water, 10 ml/kg).\nRecorded parameters were measured 15 min prior to intravenous dosing to establish baseline blood pressure and heart rate. Recorded parameters were then measured at 5, 10, and 15 min following intravenous administration of SCH-23390 or vehicle. Following oral administration of nepicastat or vehicle, recorded parameters were measured at 15, 30, 60, 90, 120, 150, 180, 210, and 240 min.\nAt the end of the experiment, each animal was anesthetized with halothane and euthanized via decapitation. The cortex, left ventricle (apex), and mesenteric artery were dissected out, weighed, and fixed in 0.4 M perchloric acid. […] Blood pressure and heart rate were analyzed separately. The change from baseline for blood pressure and heart rate were analyzed by an analysis of variance (ANOVA) with effects for treatment, time, and their interaction. […]"}}, "note": "Entries after “also recorded” stand apart in the source; their conditions may differ. Read-outs that look alike come from different tables or passages of the source.", "data": [{"compound": "Cl.NCc1c[nH]c(=S)n1[C@H]1CCc2c(F)cc(F)cc2C1", "note": "[nepicastat, (S)-5-Aminomethyl-1-(5,7-difluoro-1,2,3,4-tetrahydronaphth-2-yl)-2,3-dihydro-2-thioxo-1H-imidazole hydrochloride]", "values": [{"measurement": "cardiovascular effects", "setting": "[1]", "result": "no cardiovascular effects"}, {"measurement": "concentrations in brain relative to plasma", "setting": "[2]; 10 mg/kg oral, male rats, from 2 hr following dosing onward", "result": "exceeded those in plasma"}, {"measurement": "plasma AUCtotal in female rats relative to male rats (higher by)", "setting": "[2]; 30 mg/kg oral", "result": 77, "unit": "%"}, {"measurement": "relationship between AUCtotal and dose", "setting": "[2]; 10-100 mg/kg oral, male rats", "result": "linear"}, {"measurement": "half-life", "setting": "[2]; 10 mg/kg oral, male rats", "result": 1.7, "unit": "h"}, {"measurement": "half-life", "setting": "[2]; 30 mg/kg oral, male rats", "result": 2.09, "unit": "h"}, {"measurement": "half-life", "setting": "[2]; 100 mg/kg oral, male rats", "result": 3.88, "unit": "h"}, {"measurement": "mean arterial pressure vs vehicle", "setting": "[3]; 10 mg/kg oral", "result": "significant decrease (p<0.05) in mean arterial pressure by 30 min post dose"}, {"measurement": "heart rate vs vehicle", "setting": "[3]; SCH-23390 200 μg/kg iv, nepicastat 10 mg/kg po", "result": "did not decrease the heart rate as much as observed in vehicle treated animals"}, {"measurement": "antihypertensive effects of nepicastat after pretreatment with SCH-23390", "setting": "[3]; nepicastat 10 mg/kg po, SCH-23390 iv, hydrochloride", "result": "not attenuated; also recorded: did not significantly attenuate"}]}]}
